Measurements taken from publication PMC7156458, “Synthetic biology based construction of biological activity-related library of fungal decalin-containing diterpenoid pyrones” (Nature Communications, 2020).
Values joined by “and” are separate entries in the source; they are usually repeats but may differ in a detail not shown here. Equal entries are not always repeated. Where two headings read alike, the source gives them in different places.

Assays:
adult Drosophila = test: toxic effect on Drosophila adult (injection, unmoving flies); format: in vivo, Drosophila melanogaster; conditions: for Number of Unmoving flies (%) Mean: 1 mM, 1h, adult flies injected (3.5 ng each), solvent 5
From the text: We next tested the ability of the DDPs to affect the innate immune pathways, namely, the Toll and immune deficiency (IMD) pathways, which are the front line of defence against infection by microorganisms. […] Thus, we successfully found unique biological activity against Drosophila in 5 and 21, which may potentially be developed as insecticides.
Fig. 6 Biological activity against Drosophila. a Inhibitory effect of compound 21 on the IMD pathway Drosophila l(2)mbn cells were stimulated with heat-killed E. coli and the activity of the Attacin promoter, a read-out of the activation of the IMD pathway, was monitored by a luciferase assay. Data are means ± SEM of triplicate wells from a single experiment and are representative of two independent experiments. b Toxic effect of compound 5 on Drosophila adult. […] Data are the means ± SEM of triplicate samples from a single experiment and are representative of two independent experiments. Source data underlying Fig. 6a, b are provided in a Source Data file.
Policy information about cell lines […]
were distributed from National Cancer Institute (Frederick, MD). HT-29, MCF-7, DU-145 and PC-3 were purchased from American Type Culture Collection (Baltimore, MD). MKN-1, MKN-74, MKN-45, MKN-A and MKN-B were purchased from Immuno-Biological Laboratories, Co., Ltd., Gumma, Japan). St-4, HBC-4, HBC-5 and BSY-1 were established in Japanese Foundation for Cancer Research (Tokyo, Japan).
DL-1 and l(2)mbn were gifted from Dr. Kurata in Tohoku University.
MCF-7 (Fig.5 and Supplementary Fig. 46) were obtained from American Type Culture Collection.
HeLa-CD4-LTR/ !-galactosidase (MAGI) cells provided by Dr. J. Overbaugh through the NIH AIDS Research and Reference […]
PC-3) were authenticated by STR analysis.
DL-1 and l(2)mbn are Drosophila cell lines, and were not authenticated.
MCF-7 cells (for Fig. 5 and Supplementary Fig. 46) were authenticated by STR analysis to evaluate antiproliferative activity […]
MAGI cells were authenticated by the NIH.
Mycoplasma contamination All the cell lines tested negative for mycoplasma contamination. […]

Aβ42 [1] = biological target: T1, Aβ42 (Homo sapiens, UniProt P05067); test: TEM analysis of amyloid fibrils formed by Aβ42; format: biochemical
T1 sequence (P05067 672-713): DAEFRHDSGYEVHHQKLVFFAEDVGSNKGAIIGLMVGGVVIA

IMD pathway = IMD pathway inhibition, Attacin promoter luciferase assay in l(2)mbn cells; format: cell-based, Drosophila; conditions: for IC50: IMD pathway; for activity at 0.2 µM / activity at 0.4 µM / activity at 0.8 µM / activity at 1 µM / Promoter Activity (%): heat-killed E. coli
Aβ42 [2] = biological target: T1, Aβ42; test: LC/Q Tof-MS detection of Aβ42 adducts; format: binding; conditions: 1 h incubation at room temperature
Procedure: To further analyse the inhibitory mechanism, we subjected a mixture of Aβ42 and 21 after 1 h of incubation at room temperature to liquid chromatography/quadrupole time-of-flight mass spectrometry (LC/Q Tof-MS). […] To identify the specific amino acids involved in the interaction of 21 with the Aβ monomer, we performed LC–MS/MS analysis with collision-induced dissociation (CID) using E22P, M35ox-Aβ9-35 as a toxic conformer surrogate[66],[67]. Based on a large number of fragmented b ions and y ions, Lys16 in Aβ42 ([…]) seemed to be one of the target amino acid residues of 21 (Supplementary Fig. 50).
Device; UPLC H-class with Xevo G2-S Qtof (Waters) 3.44e7 […]
in 50% CH3CN containing 0.01%NH4OH, incubated for 1 h at 23 °C […]
Capillary voltage; 3.0 kv 16.07
WT-A!42+ compound 21 1: TOF MS ES+
ْMeasurement conditionٓ 2.25e7
Device; UPLC H-class with Xevo G2-S Qtof (Waters)
Capillary voltage; 3.0 kv
WT-A!42 + compound 21 Mass spectrum […]
Supplementary Fig. 48. Comparison of LC-MS data, a, compound 20 was incubated with wt-Aβ42 and analyzed by LC-MS, whereas no peak originated from their adducts was observed. b, compound 21 was incubated with Aβ42 and analyzed by LC-MS, and their Michael adducts were observed around 9 min. c, ESI mass spectra of the Michael adducts between Aβ42 and compound 21. d, Deconvolution Mass spectrum of a Michael adduct observed at 8.944 min. […]

[3] = cytotoxicity in the anti-HIV assay (CC50); format: cell-based; conditions: human, MAGI cells (HeLa-CD4-LTR/beta-galactosidase)

C=C1CC[C@H]2[C@]3(C)C[C@@H](C=C(C)C)O[C@H]3CC[C@]2(C)[C@@H]1Cc1c(O)c(C)c(C)oc1=O [Compound 5, subglutinol A]
Number of Unmoving flies (%) Mean (adult Drosophila): 58.3333% | paralysing activity against adult Drosophila (adult Drosophila; 1 h after injection): efficiently paralysed adult Drosophila

C=C1CCC2C(C)(CCC=C(C)C)C(O)CCC2(C)C1Cc1c(OC)oc(CO)c(C(=O)OC)c1=O (stereo not drawn) [Compound 13]
formation of typical amyloid fibrils of Aβ42 (Aβ42 [1]): strongly prevented | inhibitory effect on the IMD pathway (IMD pathway): moderate inhibitory effect

C=C1CC[C@@H]2[C@](C)(CC[C@H]3O[C@H](C=C(C)C)C[C@@]23C)[C@@H]1Cc1c(OC)oc(CO)c(C)c1=O [Compound 20]
Aβ42 adduct formation (Aβ42 [2]): no such adduct was found | CC50 [3]: > 10 µM

C=C1CC[C@@H]2[C@](C)(CC[C@H]3O[C@H](C=C(C)C)C[C@@]23C)[C@@H]1Cc1c(OC)oc(CO)c(C(=O)OC)c1=O [Compound 21]
Aβ42 adduct formation (Aβ42 [2]): adducts were detected | Number of Unmoving flies (%) Mean (adult Drosophila): 11.6667% | formation of typical amyloid fibrils of Aβ42 (Aβ42 [1]): strongly prevented | Inhibitory effect (%) (IMD pathway; 0.4 µM, single wells): 89.37% and 87.09% | Inhibitory effect (%) (IMD pathway; 0.8 µM, single wells): 98.99% and 96.72% | Inhibitory effect (%) (IMD pathway; 1 µM, single wells): 98.29% and 97.94% | inhibition at 0.4 µM (IMD pathway; Drosophila melanogaster, 0.4 µM, single wells, read-out: Inhibitory effect (%)): 85.2% | inhibition at 0.8 µM (IMD pathway; Drosophila melanogaster, 0.8 µM, single wells, read-out: Inhibitory effect (%)): 96.5% | inhibition at 1 µM (IMD pathway; Drosophila melanogaster, 1 µM, single wells, read-out: Inhibitory effect (%)): 100% | IC50 (IMD pathway; Drosophila melanogaster, read-out: IC50): 0.27 ± 0.01 µM | IC50 (IMD pathway; Drosophila melanogaster, read-out: IC50 Average): 0.273 µM | IC50 (IMD pathway; Drosophila melanogaster, single determinations, read-out: IC50 (IC50 1, 2, 3)): 0.26 µM | activity at 0.2 µM (IMD pathway; Drosophila melanogaster, 0.2 µM, read-out: Promoter Activity (%) Average): 81.5% | activity at 0.2 µM (IMD pathway; Drosophila melanogaster, 0.2 µM, read-out: Promoter Activity (%) Final): 81.5% | activity at 0.2 µM (IMD pathway; Drosophila melanogaster, 0.2 µM, single wells, read-out: Promoter Activity (%)): 73.6% | activity at 0.4 µM (IMD pathway; Drosophila melanogaster, 0.4 µM, read-out: Promoter Activity (%) Average): 12.8% | activity at 0.4 µM (IMD pathway; Drosophila melanogaster, 0.4 µM, read-out: Promoter Activity (%) Final): 12.8% | activity at 0.4 µM (IMD pathway; Drosophila melanogaster, 0.4 µM, single wells, read-out: Promoter Activity (%)): 14.8% | activity at 0.8 µM (IMD pathway; Drosophila melanogaster, 0.8 µM, read-out: Promoter Activity (%) Average): 2.58% | activity at 0.8 µM (IMD pathway; Drosophila melanogaster, 0.8 µM, read-out: Promoter Activity (%) Final): 2.58% | activity at 1 µM (IMD pathway; Drosophila melanogaster, 1 µM, read-out: Promoter Activity (%) Average): 1.26% | activity at 1 µM (IMD pathway; Drosophila melanogaster, 1 µM, read-out: Promoter Activity (%) Final): 1.26% | IC50 (IMD pathway; single determinations, read-out: IC50 (IC50 1, 2, 3)): 0.29 µM | Promoter Activity (%) (IMD pathway; 0.2 µM, single wells): 82.38% and 88.33% | Promoter Activity (%) (IMD pathway; 0.4 µM, single wells): 10.63% and 12.91% | Promoter Activity (%) (IMD pathway; 0.8 µM, single wells): 3.46% and 1.01% and 3.28% | Promoter Activity (%) (IMD pathway; 1 µM, single wells): 0.00% and 1.71% and 2.06%
